These results are taken from patent publication US10487068B2, “Pyridazine derivatives as RORc modulators” (Genentech, Inc., priority 2015, dated 2019).

pIC50: −log10 of the molar value.

The test deals with T1, RORc ligand binding domain (Homo sapiens, UniProt P51449).
T1 sequence (P51449 269-508 limits assumed): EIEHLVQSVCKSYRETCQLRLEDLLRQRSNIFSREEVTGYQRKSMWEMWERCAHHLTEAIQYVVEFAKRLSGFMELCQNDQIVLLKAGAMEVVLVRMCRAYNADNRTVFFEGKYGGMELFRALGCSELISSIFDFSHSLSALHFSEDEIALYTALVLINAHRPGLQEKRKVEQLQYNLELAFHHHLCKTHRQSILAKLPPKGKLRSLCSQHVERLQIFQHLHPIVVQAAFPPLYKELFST
Briefly: In Vitro RORc Ligand Binding Assay. The following applies: RORc IC50, radioligand 25-[3H]hydroxycholesterol 6 nM; 0.6 ug/mL RORc receptor; 3 h at 25° C.

As to `CC1(C)[C@H]2CC[C@]1(c1ncccn1)c1nnc(-c3c(F)cccc3F)cc12` [Example 1, (5R,8R)-3-(2,6-difluorophenyl)-9,9-dimethyl-8-(pyrimidin-2-yl)-5,6,7,8-tetrahydro-5,8-methanocinnoline], the pIC50 (in general, the negative decadic logarithm of the IC50, by convention in mol/L) is 7.82.
For `CC1(C)[C@H]2CC[C@]1(c1cccnn1)c1nnc(-c3c(F)cccc3F)cc12` [Example 2, (5R,8S)-3-(2,6-difluorophenyl)-9,9-dimethyl-8-(pyridazin-3-yl)-5,6,7,8-tetrahydro-5,8-methanocinnoline] the value was 7.87; for `CC1(C)[C@H]2CC[C@]1(c1c[nH]c(=O)cn1)c1nnc(-c3c(F)cccc3F)cc12` [Example 5, 5-((5R,8S)-3-(2,6-difluorophenyl)-9,9-dimethyl-5,6,7,8-tetrahydro-5,8-methanocinnolin-8-yl)pyrazin-2(1H)-one], 7.42; for `CC1(C)[C@H]2CC[C@]1(c1ncc(O)cn1)c1nnc(-c3c(F)cccc3F)cc12` [Example 6, 2-((5R,8R)-3-(2,6-difluorophenyl)-9,9-dimethyl-5,6,7,8-tetrahydro-5,8-methanocinnolin-8-yl)pyrimidin-5-ol], 6.94.
`CC1(C)[C@H]2CC[C@]1(c1ccnc(=O)[nH]1)c1nnc(-c3c(F)cccc3F)cc12` [Example 7, 6-((5R,8S)-3-(2,6-difluorophenyl)-9,9-dimethyl-5,6,7,8-tetrahydro-5,8-methanocinnolin-8-yl)pyrimidin-2(1H)-one]: the pIC50 is 7.19.
Next, `Cn1c([C@@]23CC[C@@H](c4cc(-c5c(F)cccc5F)nnc42)C3(C)C)ccc(C#N)c1=O` [Example 8, 6-((5R,8S)-3-(2,6-difluorophenyl)-9,9-dimethyl-5,6,7,8-tetrahydro-5,8-methanocinnolin-8-yl)-1-methyl-2-oxo-1,2-dihydropyridine-3-carbonitrile]: 6.97; `COC(=O)c1cncc([C@@]23CC[C@@H](c4cc(-c5c(F)cccc5F)nnc42)C3(C)C)n1` [Example 9, methyl 6-((5R,8S)-3-(2,6-difluorophenyl)-9,9-dimethyl-5,6,7,8-tetrahydro-5,8-methanocinnolin-8-yl)pyrazine-2-carboxylate]: 8.11; `COC(=O)c1cnc([C@@]23CC[C@@H](c4cc(-c5c(F)cccc5F)nnc42)C3(C)C)cn1` [Example 10, methyl 5-((5R,8S)-3-(2,6-difluorophenyl)-9,9-dimethyl-5,6,7,8-tetrahydro-5,8-methanocinnolin-8-yl)pyrazine-2-carboxylate]: 6.41.
For `CC1(C)[C@H]2CC[C@]1(c1cncc(C(=O)O)n1)c1nnc(-c3c(F)cccc3F)cc12` [Example 11, 6-((5R,8S)-3-(2,6-difluorophenyl)-9,9-dimethyl-5,6,7,8-tetrahydro-5,8-methanocinnolin-8-yl)pyrazine-2-carboxylic acid] the value was 7.41.
As for `CC1(C)[C@H]2CC[C@]1(c1cncc(C(N)=O)n1)c1nnc(-c3c(F)cccc3F)cc12` [Example 12, 6-((5R,8S)-3-(2,6-difluorophenyl)-9,9-dimethyl-5,6,7,8-tetrahydro-5,8-methanocinnolin-8-yl)pyrazine-2-carboxamide], the pIC50 is 7.74.
Compound `CC1(C)[C@H]2CC[C@]1(c1cnc(C(N)=O)cn1)c1nnc(-c3c(F)cccc3F)cc12` [Example 13, 5-((5R,8S)-3-(2,6-difluorophenyl)-9,9-dimethyl-5,6,7,8-tetrahydro-5,8-methanocinnolin-8-yl)pyrazine-2-carboxamide] had a negative logarithm of the IC50 (pIC50) of 5.37.
Compound `CC1(C)[C@H]2CC[C@]1(c1cncc(C#N)n1)c1nnc(-c3c(F)cccc3F)cc12` [Example 14, 6-((5R,8S)-3-(2,6-difluorophenyl)-9,9-dimethyl-5,6,7,8-tetrahydro-5,8-methanocinnolin-8-yl)pyrazine-2-carbonitrile] had a pIC50 of 8.24.
As for `CC1(C)[C@H]2CC[C@]1(c1cnc(C#N)cn1)c1nnc(-c3c(F)cccc3F)cc12` [Example 15, 5-((5R,8S)-3-(2,6-difluorophenyl)-9,9-dimethyl-5,6,7,8-tetrahydro-5,8-methanocinnolin-8-yl)pyrazine-2-carbonitrile], the pIC50 was 5.88.
As to `CC1(C)[C@H]2CC[C@]1(c1cccc(C#N)n1)c1nnc(-c3c(F)cccc3F)cc12` [Example 16, 6-((5R,8S)-3-(2,6-difluorophenyl)-9,9-dimethyl-5,6,7,8-tetrahydro-5,8-methanocinnolin-8-yl)picolinonitrile], the negative-log IC50 (pIC50) was 8.12.
Compound `CNC(=O)c1cccc([C@@]23CC[C@@H](c4cc(-c5c(F)cccc5F)nnc42)C3(C)C)n1` [Example 17, 6-((5R,8S)-3-(2,6-difluorophenyl)-9,9-dimethyl-5,6,7,8-tetrahydro-5,8-methanocinnolin-8-yl)-N-methylpicolinamide] gave a pIC50 of 7.69.
For `CN(C)C(=O)c1cccc([C@@]23CC[C@@H](c4cc(-c5c(F)cccc5F)nnc42)C3(C)C)n1` [Example 18, 6-((5R,8S)-3-(2,6-difluorophenyl)-9,9-dimethyl-5,6,7,8-tetrahydro-5,8-methanocinnolin-8-yl)-N,N-dimethylpicolinamide] the value was 7.45; for `Cc1cncnc1[C@@]12CC[C@@H](c3cc(-c4c(F)cccc4F)nnc31)C2(C)C` [Example 19], 7.69; for `CC1(C)[C@H]2CC[C@]1(c1nccc(=O)[nH]1)c1nnc(-c3c(F)cccc3F)cc12` [Example 20, 2-((5R,8R)-3-(2,6-difluorophenyl)-9,9-dimethyl-5,6,7,8-tetrahydro-5,8-methanocinnolin-8-yl)pyrimidin-4(3H)-one], 6.85.
The compound `COc1ccnc([C@@]23CC[C@@H](c4cc(-c5c(F)cccc5F)nnc42)C3(C)C)n1` [Example 21, (5R,8R)-3-(2,6-difluorophenyl)-8-(4-methoxypyrimidin-2-yl)-9,9-dimethyl-5,6,7,8-tetrahydro-5,8-methanocinnoline] gave a pIC50 of 7.62.
Compound `CC1(C)[C@H]2CC[C@]1(c1cc(=O)cco1)c1nnc(-c3c(F)cccc3F)cc12` [Example 22, 2-((5R,8R)-3-(2,6-difluorophenyl)-9,9-dimethyl-5,6,7,8-tetrahydro-5,8-methanocinnolin-8-yl)-4H-pyran-4-one] had a negative-log IC50 (pIC50) of 7.47.
For `CC1(C)[C@H]2CC[C@]1(c1ccnc(N)n1)c1nnc(-c3c(F)cccc3F)cc12` [Example 23] the value was 7.66; for `CC1(C)[C@H]2CC[C@]1(c1cc(=O)cc[nH]1)c1nnc(-c3c(F)cccc3F)cc12` [Example 24, 2-((5R,8S)-3-(2,6-difluorophenyl)-9,9-dimethyl-5,6,7,8-tetrahydro-5,8-methanocinnolin-8-yl)pyridin-4(1H)-one], 5.71; for `CC1(C)[C@H]2CC[C@]1(c1cc(O)cc(=O)o1)c1nnc(-c3c(F)cccc3F)cc12` [Example 25, 6-((5R,8R)-3-(2,6-difluorophenyl)-9,9-dimethyl-5,6,7,8-tetrahydro-5,8-methanocinnolin-8-yl)-4-hydroxy-2H-pyran-2-one], 5.60.
For `COc1ccnc([C@@]23CC[C@@H](c4cc(-c5c(F)cccc5F)nnc42)C3(C)C)c1` [Example 26] the value was 7.24.
